According to PubChem BioAssay (NCI):
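At the GI50, growth is halved. At the TGI there is no net growth.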

Columns and labels:
Experiment in all cases: DTP human tumour cell line panel, 384-well format; in the data active = GI50 below about 0.43 µM; inactive = the rest
SNB-75 CNS = test system: SNB-75 CNS
NCI-H460 NSCLC = test system: NCI-H460 NSCLC
M14 melanoma = test system: M14 melanoma
CAKI-1 renal = test system: CAKI-1 renal
T-47D breast = test system: T-47D breast
SW-620 colon = test system: SW-620 colon
OVCAR-3 ovarian = test system: OVCAR-3 ovarian
SR leukemia = test system: SR leukemia
HL-60(TB) leukemia = test system: HL-60(TB) leukemia
NCI-H23 lung = test system: NCI-H23 lung
HT29 colon = test system: HT29 colon
A549 NSCLC = test system: A549 NSCLC
SK-MEL-2 melanoma = test system: SK-MEL-2 melanoma
786-0 renal = test system: 786-0 renal
SF-539 CNS = test system: SF-539 CNS
RXF 393 renal = test system: RXF 393 renal
HCT-15 colon = test system: HCT-15 colon
MALME-3M melanoma = test system: MALME-3M melanoma
SNB-19 CNS = test system: SNB-19 CNS
COLO 205 colon = test system: COLO 205 colon
MDA-MB-435 melanoma = test system: MDA-MB-435 melanoma
IGROV1 ovarian = test system: IGROV1 ovarian
HS 578T breast = test system: HS 578T breast
CCRF-CEM leukemia = test system: CCRF-CEM leukemia
MDA-MB-231 breast = test system: MDA-MB-231 breast
HOP-62 NSCLC = test system: HOP-62 NSCLC
SN12C renal = test system: SN12C renal
HOP-92 NSCLC = test system: HOP-92 NSCLC
TK-10 renal = test system: TK-10 renal
NCI/ADR-RES ovarian = test system: NCI/ADR-RES ovarian
OVCAR-5 ovarian = test system: OVCAR-5 ovarian
SK-MEL-5 melanoma = test system: SK-MEL-5 melanoma
KM12 colon = test system: KM12 colon
PC-3 prostate = test system: PC-3 prostate
MCF7 breast = test system: MCF7 breast
SK-MEL-28 melanoma = test system: SK-MEL-28 melanoma
OVCAR-8 ovarian = test system: OVCAR-8 ovarian
SF-268 CNS = test system: SF-268 CNS
NCI-H522 lung = test system: NCI-H522 lung
RPMI-8226 leukemia = test system: RPMI-8226 leukemia
MOLT-4 leukemia = test system: MOLT-4 leukemia
NCI-H226 lung = test system: NCI-H226 lung
HCC-2998 colon = test system: HCC-2998 colon
OVCAR-4 ovarian = test system: OVCAR-4 ovarian
MDA-MB-468 breast = test system: MDA-MB-468 breast
SK-OV-3 ovarian = test system: SK-OV-3 ovarian
A498 renal = test system: A498 renal
ACHN renal = test system: ACHN renal
NCI-H322M lung = test system: NCI-H322M lung
DU-145 prostate = test system: DU-145 prostate
EKVX NSCLC = test system: EKVX NSCLC
BT-549 breast = test system: BT-549 breast
SF-295 CNS = test system: SF-295 CNS
U251 glioblastoma = test system: U251 glioblastoma
UACC-62 melanoma = test system: UACC-62 melanoma
UACC-257 melanoma = test system: UACC-257 melanoma

Nc1n[n+](=O)c2ccccc2n1O
61.6 µM: TGI (NCI-H460 NSCLC)
73 µM: TGI (OVCAR-4 ovarian)
44.1 µM: TGI (NCI-H522 lung)
inactive: GI50 (SNB-75 CNS) 20 µM | GI50 (NCI-H460 NSCLC) 18.8 µM | GI50 (M14 melanoma) 24.5 µM | GI50 (CAKI-1 renal) 36.2 µM | GI50 (T-47D breast) 24.1 µM | GI50 (SW-620 colon) 72.5 µM | GI50 (OVCAR-3 ovarian) 35.1 µM | GI50 (SR leukemia) 4.04 µM | GI50 (HL-60(TB) leukemia) 20.2 µM | GI50 (NCI-H23 lung) 18 µM | GI50 (HT29 colon) 69.7 µM | GI50 (A549 NSCLC) 47 µM | GI50 (SK-MEL-2 melanoma) 42.2 µM | GI50 (786-0 renal) 59.8 µM | GI50 (SF-539 CNS) 58.3 µM | GI50 (RXF 393 renal) 36.8 µM | GI50 (HCT-15 colon) 32 µM | GI50 (MALME-3M melanoma) 27.8 µM | GI50 (SNB-19 CNS) 48.2 µM | GI50 (COLO 205 colon) 35.8 µM | GI50 (MDA-MB-435 melanoma) > 100 µM | GI50 (IGROV1 ovarian) 36.7 µM | GI50 (HS 578T breast) 20 µM | GI50 (CCRF-CEM leukemia) 20.5 µM | GI50 (MDA-MB-231 breast) 70 µM | GI50 (HOP-62 NSCLC) 22.5 µM | GI50 (SN12C renal) 22.3 µM | GI50 (HOP-92 NSCLC) 20.3 µM | GI50 (TK-10 renal) 69.8 µM | GI50 (NCI/ADR-RES ovarian) 51.4 µM | GI50 (OVCAR-5 ovarian) > 100 µM | GI50 (SK-MEL-5 melanoma) 14.7 µM | GI50 (KM12 colon) 41.7 µM | GI50 (PC-3 prostate) 46.4 µM | GI50 (MCF7 breast) 57.6 µM | GI50 (SK-MEL-28 melanoma) > 100 µM | GI50 (OVCAR-8 ovarian) 37.7 µM | GI50 (SF-268 CNS) 24.3 µM | GI50 (NCI-H522 lung) 11.9 µM | GI50 (RPMI-8226 leukemia) 13.3 µM | GI50 (MOLT-4 leukemia) 12.3 µM | GI50 (NCI-H226 lung) 39.4 µM | GI50 (HCC-2998 colon) 35.8 µM | GI50 (OVCAR-4 ovarian) 24.5 µM | GI50 (MDA-MB-468 breast) 6.96 µM | GI50 (SK-OV-3 ovarian) 17.7 µM | GI50 (A498 renal) 38.7 µM | GI50 (ACHN renal) 27.2 µM | GI50 (NCI-H322M lung) > 100 µM | GI50 (DU-145 prostate) 43.5 µM | GI50 (EKVX NSCLC) 33.1 µM | GI50 (BT-549 breast) 24.1 µM | GI50 (SF-295 CNS) 26.1 µM | GI50 (U251 glioblastoma) 46.7 µM | GI50 (UACC-62 melanoma) 20.6 µM | GI50 (UACC-257 melanoma) 68.2 µM
70.5 µM: TGI (SK-OV-3 ovarian)
31.4 µM: TGI (RPMI-8226 leukemia)
69.8 µM: TGI (ACHN renal)
34.3 µM: TGI (SK-MEL-5 melanoma)
23.1 µM: TGI (MDA-MB-468 breast)
40.5 µM: TGI (HL-60(TB) leukemia)
65.1 µM: TGI (BT-549 breast)
66.6 µM: TGI (HOP-62 NSCLC)
47.5 µM: TGI (CCRF-CEM leukemia)
65.5 µM: TGI (HOP-92 NSCLC)
65.6 µM: TGI (M14 melanoma)
13.5 µM: TGI (SR leukemia)
46.5 µM: TGI (NCI-H23 lung)
60.3 µM: TGI (SNB-75 CNS)
> 100 µM: TGI (CAKI-1 renal) | TGI (T-47D breast) | TGI (SW-620 colon) | TGI (OVCAR-3 ovarian) | TGI (HT29 colon) | TGI (A549 NSCLC) | TGI (786-0 renal) | TGI (SF-539 CNS) | TGI (RXF 393 renal) | TGI (HCT-15 colon) | TGI (SNB-19 CNS) | TGI (COLO 205 colon) | TGI (MDA-MB-435 melanoma) | TGI (IGROV1 ovarian) | TGI (HS 578T breast) | TGI (MDA-MB-231 breast) | TGI (SN12C renal) | TGI (TK-10 renal) | TGI (NCI/ADR-RES ovarian) | TGI (OVCAR-5 ovarian) | TGI (KM12 colon) | TGI (PC-3 prostate) | TGI (MCF7 breast) | TGI (SK-MEL-28 melanoma) | TGI (OVCAR-8 ovarian) | TGI (NCI-H226 lung) | TGI (HCC-2998 colon) | TGI (A498 renal) | TGI (NCI-H322M lung) | TGI (DU-145 prostate) | TGI (EKVX NSCLC) | TGI (SF-295 CNS) | TGI (U251 glioblastoma) | TGI (UACC-257 melanoma)
59.9 µM: TGI (UACC-62 melanoma)
81.4 µM: TGI (MALME-3M melanoma)
73.5 µM: TGI (SF-268 CNS)
24.8 µM: TGI (MOLT-4 leukemia)
90.5 µM: TGI (SK-MEL-2 melanoma)
